Converted amounts (≈) assume the structure as drawn. Where two headings read alike, the source gives them in different places.
Experiments:
GH361 [1] = assay: MIC of ceftriaxone for GH361; assay type: cell-based, B. thetaiotaomicron; settings: Bacteroides thetaiotaomicron
Procedure: “α-mannan is a fungal cell wall glycan that contains α-mannosidic linkages similar to those found in the core regions of N-linked glycans present on secreted mucus and epithelial surfaces” (Martens et al., 2011). However, expression levels of the PUL genes involved in mannan utilization in mice fed a diet lacking exogenous α-mannan were only partial when compared to other PULs showing high activity in vivo (Martens et al., 2008). The effectiveness of the mannan induced system was tested in vivo in seven-week-old male C57BL/6J WT mice with established B. thetaiotaomicron within the intestine, housed in a conventional animal facility after treating for 3 days with 1 mg/ml ampicillin and 1 mg/ml neomycin administered via drinking water. To achieve this, the strain GH361 containing the BtCepA gene controlled by the inducible low expression system (Table 1) was administered by oral gavage (1×10^8 colony-forming units (CFU) in 100 μl of phosphate buffered saline) to two groups of 4 mice. […] The MICs of ceftriaxone determined for GH361 were 8 mg/L when cells were grown in the absence of mannan and 64 mg/L when mannan was added to the growth medium. […]

GH361 [2] = assay: Mannan-induced BtCepA expression in the mouse gut (ceftriaxone challenge, fecal CFU); assay type: in vivo, mice
Source text: FIG. 4. In vivo induction of ceftriaxone resistance using exogenous α-mannan. Crosses indicate times of i.p. injections. GA: Group A of mice received mannan in their drinking water. GB: Group B of mice which were given access to regular drinking water. CRO: ceftriaxome.
“α-mannan is a fungal cell wall glycan that contains α-mannosidic linkages similar to those found in the core regions of N-linked glycans present on secreted mucus and epithelial surfaces” (Martens et al., 2011). However, expression levels of the PUL genes involved in mannan utilization in mice fed a diet lacking exogenous α-mannan were only partial when compared to other PULs showing high activity in vivo (Martens et al., 2008). The effectiveness of the mannan induced system was tested in vivo in seven-week-old male C57BL/6J WT mice with established B. thetaiotaomicron within the intestine, housed in a conventional animal facility after treating for 3 days with 1 mg/ml ampicillin and 1 mg/ml neomycin administered via drinking water. To achieve this, the strain GH361 containing the BtCepA gene controlled by the inducible low expression system (Table 1) was administered by oral gavage (1×10^8 colony-forming units (CFU) in 100 μl of phosphate buffered saline) to two groups of 4 mice. One of the groups (Group A) were given drinking water with containing 2.5% (v/v) mannan-oligosaccharide supplement (ActiveMOS, Orffa, Werkendam, The Netherlands) prepared treating the powder (10% w/v) with 1% NaOH at 100° C. for 1 h, cooling and neutralizing to pH7 with dilute HCl solution (Huang et al., 2010). […] Both groups of mice were challenged every other day via i.p. injection with ceftriaxone (0.4 mg/mice), a third-generation cephalosporin that is excreted via the biliary route and affects the colonic microbiota (Arvidsson et al., 1982). The MICs of ceftriaxone determined for GH361 were 8 mg/L when cells were grown in the absence of mannan and 64 mg/L when mannan was added to the growth medium. […]

B. thetaiotaomicron = assay: Minimum inhibitory concentration of ampicillin for variant strains with or without mannan; assay type: cell-based; settings: Bacteroides thetaiotaomicron, read-out: minimum inhibitory concentration (MIC) of ampicillin
Source text: Since optimization of this novel gene expression system was based upon the use of a heterologous reporter gene, the system was validated by determining if it can be used to study B. thetaiotaomicron genes. For this purpose, the complementation of a deletion mutant of BtcepA (Stentz et al., 2015), a cephalosporinase gene involved in the resistance of bacterial cells to β-lactam antibiotics, was undertaken. The primer pair Lactamase_F and Lactamase_EcoRI_R was used to amplify an 885-bp region from B. thetaiotaomicron VPI-5482 genomic DNA encoding BtcepA. […] The β-lactamase activity was measured after 2 h of induction with increasing concentrations of mannan (Table 4). […] Periplasmic proteins were prepared as described by Stentz et al. (Stentz et al., 2015). β-lactamase activity was assessed spectrophotometrically by hydrolysis of nitrocefin according to the manufacturer's instructions (Calbiochem). […] The basal level measured for the low expression system was negligible since it represented only 2.7% of the activity measured for the wild-type control strain. To establish how these measured activities translate into resistance to β-lactam antibiotics the minimum inhibitory concentration (MIC) of the β-lactam antibiotic ampicillin was determined for each variant strain grown in the presence or absence of mannan.

Structure (SMILES)	MIC (GH361 [1]; read-out: MIC of ceftriaxone, GH361, mannan added to the growth medium) [µg/mL]	MIC (GH361 [1]; read-out: MIC of ceftriaxone, GH361 grown in the absence of mannan) [µg/mL]	effect on GH361 population levels (GH361 [2]; ceftriaxone increased to 0.8 mg, both groups)	effect on levels of GH361 (CFU in fecal samples) (GH361 [2]; group A given mannan in drinking water, three successive i.p. doses 0.4 mg/mice)	decrease of levels of GH361 (CFU in fecal samples) (GH361 [2]; group B not given mannan, three successive i.p. doses 0.4 mg/mice)	MIC (B. thetaiotaomicron) [µg/mL]
CO/N=C(\C(=O)N[C@@H]1C(=O)N2C(C(=O)O)=C(CSc3nc(=O)c(=O)[nH]n3C)CS[C@H]12)c1csc(N)n1 [ceftriaxone]	64	8	decreased significantly	no effect	approximately 15 fold	–
CC1(C)S[C@@H]2[C@H](NC(=O)[C@H](N)c3ccccc3)C(=O)N2[C@H]1C(=O)O [ampicillin]	–	–	–	–	–	4 to 2050 (≈ 11.4 to 5860 µM)

— patent publication US11000581B2, “Engineering gut commensal bacteria to express heterologous proteins in their outer membrane vesicles (OMVs) for delivery to the GI-tract” (QUADRAM INSTITUTE BIOSCIENCE, priority 2016, dated 2021)
